Where “and” joins values, the source holds several entries; their conditions need not be identical. Equal entries are not always repeated. Inconclusive results and toxic doses are left out.

This assay deals with L1210 leukemia ip in BDF1 mice, survival T/C. The assay can be described thus: NCI In Vivo Anticancer Drug Screen. Data for tumor model L1210 Leukemia (intraperitoneal) in B6D2F1 (BDF1) mice. The following applies: higher = longer survival. The essentials:
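Survival endpoint. Drug-treated group vs vehicle group, expressed as T divided by C. Tumor passaged by transplantation.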

[1] abbreviates: endpoint: mean survival time, dose: 12.5 mg/kg/injection, schedule: Q04DX002 (ip), vehicle: saline.
Setting [2] is: endpoint: mean survival time, dose: 25.0 mg/kg/injection, schedule: Q04DX002 (ip), vehicle: saline.
The mark [3] stands for this setting: endpoint: mean survival time, dose: 100.0 mg/kg/injection, schedule: Q01DX009 (ip), vehicle: Klucel (hydroxypropylcellulose) (HPC).
The mark [4] stands for this setting: endpoint: mean survival time, dose: 100.0 mg/kg/injection, schedule: Q04DX003 (ip), vehicle: Klucel (hydroxypropylcellulose) (HPC).
The mark [5] stands for this setting: endpoint: mean survival time, dose: 200.0 mg/kg/injection, schedule: Q01DX009 (ip), vehicle: Klucel (hydroxypropylcellulose) (HPC).
Where [6] appears, read: endpoint: mean survival time, dose: 200.0 mg/kg/injection, schedule: Q04DX003 (ip), vehicle: Klucel (hydroxypropylcellulose) (HPC).
Setting [7] is: endpoint: mean survival time, dose: 400.0 mg/kg/injection, schedule: Q01DX009 (ip), vehicle: Klucel (hydroxypropylcellulose) (HPC).
Where [8] appears, read: endpoint: mean survival time, dose: 400.0 mg/kg/injection, schedule: Q04DX003 (ip), vehicle: Klucel (hydroxypropylcellulose) (HPC).

In the case of `COc1cc(NS(C)(=O)=O)ccc1Nc1c2ccc([N+](=O)[O-])cc2nc2c(C)cccc12`, the T/C reads like this: (endpoint: mean survival time, dose: 0.12 mg/kg/injection, schedule: Q01DX009 (ip), vehicle: saline) 122 % of control; (endpoint: mean survival time, dose: 0.37 mg/kg/injection, schedule: Q04DX003 (ip), vehicle: saline) 113 % of control; (endpoint: mean survival time, dose: 0.62 mg/kg/injection, schedule: Q01DX009 (ip), vehicle: saline) 112 % of control; (endpoint: mean survival time, dose: 0.75 mg/kg/injection, schedule: Q04DX003 (ip), vehicle: saline) 161 % of control; (endpoint: mean survival time, dose: 1.0 mg/kg/injection, schedule: Q01DX009 (ip), vehicle: saline) 166 % of control; (endpoint: mean survival time, dose: 1.25 mg/kg/injection, schedule: Q01DX009 (ip), vehicle: saline) 121 % of control. For the same molecule, the T/C by setting is: (endpoint: mean survival time, dose: 1.5 mg/kg/injection, schedule: Q04DX003 (ip), vehicle: saline) 187 % of control; (endpoint: mean survival time, dose: 2.5 mg/kg/injection, schedule: Q01DX009 (ip), vehicle: saline) 275 % of control; (endpoint: mean survival time, dose: 5.0 mg/kg/injection, schedule: Q01DX009 (ip), vehicle: saline) 111 % of control and 277 % of control; (endpoint: mean survival time, dose: 5.0 mg/kg/injection, schedule: Q01DX009 (sc), vehicle: saline) 165 % of control; (endpoint: mean survival time, dose: 7.5 mg/kg/injection, schedule: Q04DX003 (ip), vehicle: saline) 218 % of control; (endpoint: mean survival time, dose: 15.0 mg/kg/injection, schedule: Q01DX001 (ip), vehicle: other) 162 % of control. The T/C was 103 % of control (endpoint: mean survival time, dose: 15.0 mg/kg/injection, schedule: Q01DX009 (ip), vehicle: saline); 162 % of control (endpoint: mean survival time, dose: 15.0 mg/kg/injection, schedule: Q04DX003 (ip), vehicle: saline); 86 % of control (endpoint: mean survival time, dose: 20.0 mg/kg/injection, schedule: Q01DX009 (ip), vehicle: saline); 180 % of control (endpoint: mean survival time, dose: 33.0 mg/kg/injection, schedule: Q01DX001 (ip), vehicle: other); 177 % of control (endpoint: mean survival time, dose: 50.0 mg/kg/injection, schedule: Q01DX001 (ip), vehicle: other); 159 % of control (endpoint: mean survival time, dose: 75.0 mg/kg/injection, schedule: Q01DX001 (ip), vehicle: other). Besides, the T/C (endpoint: mean survival time, dose: 75.0 mg/kg/injection, schedule: Q01DX001 (ip), vehicle: saline) was 203 % of control; the T/C (endpoint: mean survival time, dose: 113.0 mg/kg/injection, schedule: Q01DX001 (ip), vehicle: other) was 173 % of control; the T/C (endpoint: mean survival time, dose: 150.0 mg/kg/injection, schedule: Q01DX001 (ip), vehicle: saline) is 98 % of control.

Take `NC(CCl)=NCc1cccnc1`: the T/C reads like this: under setting [1], 97 % of control; under setting [2], 108 % of control.

Take `OC(c1ccccc1)c1ccncc1` (centres undefined): the T/C is 103 % of control (endpoint: mean survival time, dose: 100.0 mg/kg/injection, schedule: Q01DX001 (ip), vehicle: saline with Tween-80); 97 % of control (endpoint: mean survival time, dose: 200.0 mg/kg/injection, schedule: Q01DX001 (ip), vehicle: saline with Tween-80); 103 % of control (endpoint: mean survival time, dose: 400.0 mg/kg/injection, schedule: Q01DX001 (ip), vehicle: saline with Tween-80).

With `CCCCCCCCCCCCS`, the T/C reads like this: (endpoint: mean survival time, dose: 100.0 mg/kg/injection, schedule: Q01DX001 (ip), vehicle: carboxymethylcellulose (CMC)) 103 % of control; (endpoint: mean survival time, dose: 200.0 mg/kg/injection, schedule: Q01DX001 (ip), vehicle: carboxymethylcellulose (CMC)) 105 % of control; (endpoint: mean survival time, dose: 400.0 mg/kg/injection, schedule: Q01DX001 (ip), vehicle: carboxymethylcellulose (CMC)) 103 % of control.

For `CCCCCCC[n+]1ccc(C(=O)c2ccccc2)cc1`, the T/C (endpoint: mean survival time, dose: 75.0 mg/kg/injection, schedule: Q01DX001 (ip), vehicle: carboxymethylcellulose (CMC)) is 96 % of control and the T/C (endpoint: mean survival time, dose: 300.0 mg/kg/injection, schedule: Q01DX001 (ip), vehicle: carboxymethylcellulose (CMC)) was 105 % of control.

In the case of `S=C1NC2(CCCCC2)C2=C(CCCC2)S1`, the T/C is 100 % of control (endpoint: mean survival time, dose: 100.0 mg/kg/injection, schedule: Q04DX003 (ip), vehicle: saline with Tween-80); 88 % of control (endpoint: mean survival time, dose: 200.0 mg/kg/injection, schedule: Q04DX003 (ip), vehicle: saline with Tween-80); 96 % of control (endpoint: mean survival time, dose: 400.0 mg/kg/injection, schedule: Q04DX003 (ip), vehicle: saline with Tween-80).

As to `c1ccc(-c2nnnn2C23CC4CC(CC(C4)C2)C3)cc1`, the T/C (endpoint: mean survival time, dose: 100.0 mg/kg/injection, schedule: Q04DX003 (ip), vehicle: saline) was 98 % of control; the T/C (endpoint: mean survival time, dose: 200.0 mg/kg/injection, schedule: Q04DX003 (ip), vehicle: saline) was 100 % of control; the T/C (endpoint: mean survival time, dose: 400.0 mg/kg/injection, schedule: Q04DX003 (ip), vehicle: saline) was 98 % of control.

Consider `CCOP(=O)(NC1C2CCC(C2)C1C)OCC` (centres undefined), for which the T/C is, setting by setting: (endpoint: mean survival time, dose: 200.0 mg/kg/injection, schedule: Q01DX001 (ip), vehicle: saline) 98 % of control; (endpoint: mean survival time, dose: 400.0 mg/kg/injection, schedule: Q01DX001 (ip), vehicle: saline) 102 % of control.

As for `O=C(O)C1CC(O)CN1` (centres undefined), the T/C was 110 % of control and 107 % of control under setting [1]; 106 % of control and 97 % of control under setting [2]; 100 % of control and 110 % of control (endpoint: mean survival time, dose: 50.0 mg/kg/injection, schedule: Q04DX002 (ip), vehicle: saline); 102 % of control (endpoint: median survival time, dose: 25.0 mg/kg/injection, schedule: Q01DX009 (ip), vehicle: saline); 103 % of control (endpoint: median survival time, dose: 50.0 mg/kg/injection, schedule: Q01DX009 (ip), vehicle: saline); 108 % of control (endpoint: median survival time, dose: 100.0 mg/kg/injection, schedule: Q01DX009 (ip), vehicle: saline). Also, the T/C runs as follows: (endpoint: median survival time, dose: 200.0 mg/kg/injection, schedule: Q01DX009 (ip), vehicle: saline) 112 % of control; (endpoint: median survival time, dose: 400.0 mg/kg/injection, schedule: Q01DX009 (ip), vehicle: saline) 114 % of control.

On to `O=c1[nH]c2cc(Cl)cc([N+](=O)[O-])c2c2c(Cl)cc(Cl)cc12`, for which the T/C is 100 % of control under setting [3]; 95 % of control under setting [4]; 101 % of control under setting [5]; 97 % of control under setting [6]; 104 % of control under setting [7]; 92 % of control under setting [8].

For `CN(C)c1ccc(C=O)cc1Br`, the T/C runs as follows: under setting [3], 98 % of control; under setting [4], 100 % of control; under setting [5], 96 % of control; under setting [6], 103 % of control; under setting [7], 96 % of control; under setting [8], 101 % of control.

Regarding `CS(=O)(=O)OCCN(CCOS(C)(=O)=O)c1ccc(N=O)cc1`, the T/C runs as follows: (endpoint: mean survival time, dose: 0.08 mg/kg/injection, schedule: Q01DX Z (ip), vehicle: carboxymethylcellulose (CMC)) 115 % of control; (endpoint: mean survival time, dose: 0.08 mg/kg/injection, schedule: Q01DX Z (ip), vehicle: saline) 117 % of control; (endpoint: mean survival time, dose: 0.16 mg/kg/injection, schedule: Q01DX Z (ip), vehicle: carboxymethylcellulose (CMC)) 123 % of control; (endpoint: mean survival time, dose: 0.16 mg/kg/injection, schedule: Q01DX Z (ip), vehicle: saline) 122 % of control; (endpoint: mean survival time, dose: 0.63 mg/kg/injection, schedule: Q01DX Z (ip), vehicle: saline) 120 % of control; (endpoint: mean survival time, dose: 1.25 mg/kg/injection, schedule: Q01DX Z (ip), vehicle: saline) 110 % of control. Besides, the T/C reads like this: (endpoint: mean survival time, dose: 1.28 mg/kg/injection, schedule: Q01DX Z (ip), vehicle: carboxymethylcellulose (CMC)) 103 % of control; (endpoint: mean survival time, dose: 2.0 mg/kg/injection, schedule: Q01DX001 (ip), vehicle: saline) 120 % of control; (endpoint: mean survival time, dose: 4.0 mg/kg/injection, schedule: Q01DX001 (ip), vehicle: saline) 121 % of control.

`O=C(COc1cc(Cl)c(Cl)cc1Cl)Oc1ccc(Cl)cc1Cl`: the T/C was 94 % of control (endpoint: mean survival time, dose: 100.0 mg/kg/injection, schedule: Q04DX002 (ip), vehicle: Klucel (hydroxypropylcellulose) (HPC)); 91 % of control (endpoint: mean survival time, dose: 200.0 mg/kg/injection, schedule: Q04DX002 (ip), vehicle: Klucel (hydroxypropylcellulose) (HPC)); 98 % of control (endpoint: mean survival time, dose: 400.0 mg/kg/injection, schedule: Q04DX002 (ip), vehicle: Klucel (hydroxypropylcellulose) (HPC)).

As for `CCCC(=O)Nc1ccc([N+](=O)[O-])cc1OC`, the T/C was 105 % of control (endpoint: mean survival time, dose: 100.0 mg/kg/injection, schedule: Q01DX009 (ip), vehicle: saline with Tween-80); 94 % of control (endpoint: mean survival time, dose: 200.0 mg/kg/injection, schedule: Q01DX009 (ip), vehicle: saline with Tween-80); 94 % of control (endpoint: mean survival time, dose: 400.0 mg/kg/injection, schedule: Q01DX009 (ip), vehicle: saline with Tween-80).
